Laboratory results published in US6956030B2, “Use of mometasone furoate for treating upper airway diseases” (Schering Corporation, priority 1994, dated 2005).
Marks after values point to notes of the source that are not given here.

Experiments:
[1] = Drug metabolism/clinical pharmacology study: absorption and excretion of total radioactivity after ^3H-MF by various routes; type: in vivo, normal healthy male volunteers; conditions: for AUC (1) of total radioactivity, dose normalized / Cmax of total radioactivity, dose normalized: based on dose normalized data; for percent of dose as tritiated water in the body: estimated from urinary distillation experiments
Method: In addition, a single-dose absorption, excretion and metabolism study using 200 mcg of ^3H-mometasone furoate as the nasal spray formulation was conducted in 6 normal male volunteers. When systemic absorption (based on urinary excretion) was compared to an intravenously administered dose of ^3H-mometasone furoate, it was 8%.
A drug metabolism and clinical pharmacology study was conducted by administering (by various routes) tritium-labeled mometasone furoate (“^3H-MF”) to 6 groups of 6 normal male volunteers in each group. Blood and urine samples were collected for measurement of total drug (including metabolites).
The objectives of these studies in male volunteers were to determine the absorption, metabolism and excretion of ^3H-labeled mometasone furoate (“^3H-MF”) following administration by oral swallow as a solution and as an aqueous suspension of the monohydrate, by oral inhalation as a suspension from a standard metered dose inhaler (MDI) and from a metered dose inhaler containing a spacer device (Gentlehaler), by nasal inhalation as an aqueous suspension of the mometasone furoate monohydrate from a nasal spray unit and by intravenous injection as a solution.
Thirty-six (n=6 per treatment group) normal healthy male volunteers between the ages of 19 and 40 yr. (average 29 yr.) having weights in accordance with current actuarial tables (+10%) were enrolled in these single dose studies. All subjects were determined to be in good health by their medical history, physical examinations, clinical and laboratory tests.
(§1) Plasma, urine, expired air filters, Respirgard and fecal samples were collected and assayed for radioactivity content. The limit of quantitation (LOQ) for plasma radioactivity ranged from 0.103 to 0.138 ng eq/ml., except for the nasal spray treatment where the LOQ was 0.025 ng eq/ml. Selected plasma, urine and fecal samples were analyzed for metabolite profiles.
Pharmacokinetics—The mean (n=6) plasma concentrations of total radioactivity are illustrated in Summary FIG. 1 and the mean (n=6) pharmacokinetic parameters derived from total plasma radioactivity are presented in Table 2.

[2] = HPLC/radio-flow metabolite profiling of plasma, urine and fecal extracts after ^3H-MF; type: in vivo, normal healthy male volunteers
From the text: The substantial minimization of the systemic effect of mometasone furoate administered intranasally or by oral inhalation has been measured by High Performance Liquid Chromatography (HPLC) metabolite profiling of plasma radioactivity of mometasone furoate, its substantially complete (>98%) first-pass metabolism in the liver and by a minimal reduction in cortisol secretion levels.
as §1
Selected plasma, urine and fecal extracts were analyzed by high performance liquid chromatography (HPLC) with radio-flow monitoring to determine metabolite profiles. […] Approximately 1.5% of the 3 hr. plasma radioactivity was associated with parent drug indicating extensive first past metabolism and rapid inactivation by the liver. In contrast, following intravenous administration, approximately 39% of the 3 hr. plasma radioactivity was associated with parent drug. Approximately 12% and 33% of the 3 hr. plasma radioactivity was associated with parent drug following administration of the MDI and Gentlehaler, respectively. In general, the plasma concentrations of radioactivity following the nasal and oral suspension routes of administration were too low for metabolite profiling.
Hydrolysis of plasma and urine was performed with an enzyme preparation containing both β-glucuronidase and aryl sulfatase. These experiments yielded modest changes in the HPLC metabolite profiles that were consistent with the hydrolytic release of conjugated metabolites.

plasma cortisol = assay: Phase I rising single-dose safety and tolerance study, metered dose inhaler, 24-hour plasma cortisol; type: in vivo, healthy male volunteers
Method: Several Phase I studies were conducted using mometasone furoate formulated for delivery as a suspension in a pressurized metered dose inhaler (MDI). In a randomized, third-party blinded, placebo-controlled rising single-dose safety and tolerance study, aerosolized mometasone furoate was administered by a metered dose inhaler to eight healthy male volunteers. Doses were administered at 11 p.m. and plasma cortisol concentrations were measured during the following 24-hour period.

[3] = of the inhalation dose; cited from earlier work
[4] = cited from earlier work; for efficacy in treating asthma in clinical trials: clinical trials / Phase II; for systemic side effects: in vivo

C[C@@H]1C[C@H]2[C@@H]3CCC4=CC(=O)C=C[C@]4(C)[C@@]3(Cl)[C@@H](O)C[C@]2(C)[C@@]1(OC(=O)c1ccco1)C(=O)CCl [^3H-MF]
% Absorbed (AUC): radioactivity absorbed, dose normalized versus intravenous data ([1]; Gentlehaler): 69* %
% Absorbed (Urine): radioactivity absorbed, urinary excretion compared to the intravenous dose ([1]; Gentlehaler): 67%
Feces (% dose): administered radioactivity excreted in feces through 168 hr ([1]; Gentlehaler): 89%
U + F (% dose): total dose recovered in urine and feces through 168 hr ([1]; Gentlehaler): 105%
Urine (% dose): administered radioactivity excreted in the urine through 168 hr ([1]; Gentlehaler): ~16%
absorption of drug-derived radioactivity (dose normalized AUC and urinary excretion data) ([1]; Gentlehaler): 67-69%
AUC (1) of total radioactivity to infinity ([1]; Gentlehaler 0.40 mg): 110 ng eq hr/ml
AUC (1) of total radioactivity, dose normalized ([1]; Gentlehaler): 275 ng eq hr/ml
Cmax of total radioactivity, dose normalized ([1]; Gentlehaler): 1.71 ng eq/ml
% Absorbed (AUC): radioactivity absorbed, dose normalized versus intravenous data ([1]; MDI): 23* %
% Absorbed (Urine): radioactivity absorbed, urinary excretion compared to the intravenous dose ([1]; MDI): 30%
Feces (% dose): administered radioactivity excreted in feces through 168 hr ([1]; MDI): 86%
U + F (% dose): total dose recovered in urine and feces through 168 hr ([1]; MDI): 94%
Urine (% dose): administered radioactivity excreted in the urine through 168 hr ([1]; MDI): ~7%
absorption of drug-derived radioactivity (dose normalized AUC and urinary excretion data) ([1]; MDI): 23-30%
AUC (1) of total radioactivity to infinity ([1]; MDI 0.86 mg): 81 ng eq hr/ml
AUC (1) of total radioactivity, dose normalized ([1]; MDI): 94 ng eq hr/ml
Cmax of total radioactivity, dose normalized ([1]; MDI): 0.93 ng eq/ml
tritium label exchanged with body water ([1]; human, in vivo): less than 4%
Feces (% dose): administered radioactivity excreted in feces through 168 hr ([1]; intravenous): 54%
U + F (% dose): total dose recovered in urine and feces through 168 hr ([1]; intravenous): 78%
AUC (1) of total radioactivity to infinity ([1]; intravenous solution 1.03 mg): 401 ng eq hr/ml
Cmax (C5min) of total radioactivity ([1]; intravenous solution 1.03 mg, mean n=6): 23.7 ng eq/ml
percent of dose as tritiated water in the body ([1]; intravenous): approximately 3.7%
Feces (% dose): administered radioactivity excreted in feces through 168 hr ([1]; nasal spray): 78%
U + F (% dose): total dose recovered in urine and feces through 168 hr ([1]; nasal spray): 80%
AUC (1) of total radioactivity to infinity ([1]; nasal spray 0.19 mg): BQL
Cmax of total radioactivity ([1]; nasal spray 0.19 mg, LOQ 0.025 ng eq/ml): BQL**
Cmax of total radioactivity ([1]; nasal spray 0.19 mg, LOQ 0.025 ng eq/ml, listed as 3H-mometasone furoate): below the limit of quantification
% Absorbed (Urine): radioactivity absorbed, urinary excretion compared to the intravenous dose ([1]; nasal spray, listed as 3H-mometasone furoate): 8%
% Absorbed (AUC): radioactivity absorbed, dose normalized versus intravenous data ([1]; oral solution): 122%
% Absorbed (Urine): radioactivity absorbed, urinary excretion compared to the intravenous dose ([1]; oral solution): 104%
Feces (% dose): administered radioactivity excreted in feces through 168 hr ([1]; oral solution): 62%
U + F (% dose): total dose recovered in urine and feces through 168 hr ([1]; oral solution): 87%
AUC (1) of total radioactivity to infinity ([1]; oral solution 1.03 mg): 488 ng eq hr/ml
Cmax of total radioactivity ([1]; oral solution 1.03 mg, mean n=6): 4.8 ng eq/ml
percent of dose as tritiated water in the body ([1]; oral solution): ~2.9%
Feces (% dose): administered radioactivity excreted in feces through 168 hr ([1]; oral suspension): 73%
U + F (% dose): total dose recovered in urine and feces through 168 hr ([1]; oral suspension): 75%
AUC (1) of total radioactivity to infinity ([1]; oral suspension 0.99 mg): BQL
Cmax of total radioactivity ([1]; oral suspension 0.99 mg, LOQ 0.103 to 0.138 ng eq/ml): BQL
route of excretion of radioactivity ([1]; regardless of dosage form and route of administration): predominantly excreted in the feces
3 hr. plasma radioactivity associated with parent drug ([2]; Gentlehaler): ~33%
urine metabolite profile ([2]; Gentlehaler): all of the radioactivity was associated with metabolites more polar than parent drug
3 hr. plasma radioactivity associated with parent drug ([2]; MDI): Approximately 12%
3 hr. plasma radioactivity associated with parent drug ([2]; intravenous): approximately 39%
urinary and fecal extract metabolite profile ([2]; intravenous and oral solution): all of the radioactivity was associated with metabolites more polar than parent drug
fecal extract metabolite profile ([2]; nasal spray, oral suspension, MDI and Gentlehaler): presence primarily of mometasone furoate
3 hr. plasma radioactivity associated with parent drug ([2]; oral solution): Approximately 1.5%
plasma metabolite profile ([2]; oral solution): most of the plasma radioactivity was associated with metabolites more polar than the available standards

CCC(=O)OCC(=O)[C@@]1(OC(=O)CC)[C@@H](C)C[C@H]2[C@@H]3CCC4=CC(=O)C=C[C@]4(C)[C@@]3(Cl)[C@@H](O)C[C@@]21C [beclomethasone dipropionate]
reduction of 24-hour area under the curve plasma cortisol profile (AUC 0-24) compared to placebo (plasma cortisol; single dose 1000 mcg by MDI at 11 p.m.): 30%
reduction of 24-hour area under the curve plasma cortisol profile (AUC 0-24) compared to placebo (plasma cortisol; single dose 2000 mcg by MDI at 11 p.m.): 38%
reduction of 24-hour area under the curve plasma cortisol profile (AUC 0-24) compared to placebo (plasma cortisol; single dose 4000 mcg by MDI at 11 p.m.): 65%

CCCC1O[C@@H]2C[C@H]3[C@@H]4CCC5=CC(=O)C=C[C@]5(C)[C@H]4[C@@H](O)C[C@]3(C)[C@]2(C(=O)CO)O1 (stereo partly shown) [budesonide]
systemic bioavailability after oral ingestion [3]: greater than 10%

CCCC(=O)O[C@]1(C(=O)CSC(=O)CC)CC[C@H]2[C@@H]3CCC4=CC(=O)CC[C@]4(C)[C@H]3[C@@H](O)C[C@@]21C [butixocort propionate]
efficacy in treating asthma in clinical trials [4]: some efficacy
systemic side effects [4]: low systemic side-effects

CCS[C@]1(SC)CC[C@H]2[C@@H]3CCC4=CC(=O)C=C[C@]4(C)[C@@]3(F)[C@@H](O)C[C@@]21C [tipredane]
efficacy in treating asthma in clinical trials [4]: have not demonstrated a level of efficacy in treating asthma which would be considered therapeutically useful
systemic side effects [4]: low systemic side effects
